Assay results: ChEMBL document CHEMBL1268971, “4,5-Dihydro-1H-pyrazolo[4,3-h]quinazolines as potent and selective Polo-like kinase 1 (PLK1) inhibitors” (Bioorg Med Chem Lett, 2010)
Converted amounts (≈) assume the structure as drawn.

How the values were obtained:
[1] = Solubility of the compound at pH 7; format: physicochemical; conditions: buffer
A2780 = test: cells; conditions: Homo sapiens, A2780, 72 h
[2] = target: Serine/threonine-protein kinase PLK2 (Homo sapiens, UniProt Q9NYY3); test: Inhibition of PLK2
[3] = target: Cyclin-dependent kinase 2/cyclin A (Homo sapiens, UniProt P24941); test: Inhibition of CDK2/Cyclin A; format: protein-complex assay
[4] = target: Serine/threonine-protein kinase PLK1 (Homo sapiens, UniProt P53350)
[5] = target: Serine/threonine-protein kinase PLK3 (Homo sapiens, UniProt Q9H4B4); test: Inhibition of PLK3
[6] = target: Serine/threonine-protein kinase Nek6 (Homo sapiens, UniProt Q9HC98); test: Inhibition of NEK6
[7] = Inhibition of casein kinase 2
[8] = Permeability of the compound by PAMPA; format: ADME
[9] = target: T1, Receptor-type tyrosine-protein kinase FLT3 (Homo sapiens, UniProt P36888); test: Inhibition of FLT3
T1 sequence (P36888 whole entry): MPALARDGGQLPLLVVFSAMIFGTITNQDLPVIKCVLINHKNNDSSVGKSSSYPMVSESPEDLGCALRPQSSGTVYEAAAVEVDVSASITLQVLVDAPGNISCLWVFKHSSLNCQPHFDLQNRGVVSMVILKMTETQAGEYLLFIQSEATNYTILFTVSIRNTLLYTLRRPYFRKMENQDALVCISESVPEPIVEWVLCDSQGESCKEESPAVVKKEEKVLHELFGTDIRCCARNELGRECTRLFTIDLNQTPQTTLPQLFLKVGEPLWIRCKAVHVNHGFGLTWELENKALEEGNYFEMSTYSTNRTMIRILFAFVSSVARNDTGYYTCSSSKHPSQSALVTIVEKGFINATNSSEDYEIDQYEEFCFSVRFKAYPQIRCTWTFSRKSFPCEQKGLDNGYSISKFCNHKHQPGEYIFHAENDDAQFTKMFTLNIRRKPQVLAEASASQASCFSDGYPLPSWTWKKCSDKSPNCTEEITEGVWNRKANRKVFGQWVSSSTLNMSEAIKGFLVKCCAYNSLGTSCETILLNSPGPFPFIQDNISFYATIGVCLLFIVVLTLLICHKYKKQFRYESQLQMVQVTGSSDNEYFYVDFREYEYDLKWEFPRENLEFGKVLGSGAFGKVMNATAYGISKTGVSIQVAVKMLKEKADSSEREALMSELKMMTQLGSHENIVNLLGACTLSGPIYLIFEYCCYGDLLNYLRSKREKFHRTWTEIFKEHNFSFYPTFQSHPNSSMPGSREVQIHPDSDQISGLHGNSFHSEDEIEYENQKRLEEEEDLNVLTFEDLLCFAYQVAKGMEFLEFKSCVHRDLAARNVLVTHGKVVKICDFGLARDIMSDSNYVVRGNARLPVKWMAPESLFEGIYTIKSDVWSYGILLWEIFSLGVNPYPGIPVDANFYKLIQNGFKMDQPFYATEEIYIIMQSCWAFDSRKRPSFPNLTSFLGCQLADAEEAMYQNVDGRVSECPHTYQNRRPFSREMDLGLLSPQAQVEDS

[10] = Intrinsic clearance in human liver microsomes; format: ADME, Microsome
[11] = Inhibition of PDGFR
[12] = Solubility of the compound at 105 Tween 80; format: physicochemical
[13] = target: ALK tyrosine kinase receptor (Homo sapiens, UniProt Q9UM73); test: Inhibition of ALK
[14] = Clearance in CD1 mouse at 10 mg/kg, iv administered as single dose by LC/MS/MS analysis; format: ADME, organism-based; design: dose 10 mg/kg, route intravenous; conditions: in vivo
[15] = Terminal half life in CD1 mouse at 10 mg/kg, iv administered as single dose by LC/MS/MS analysis; format: ADME, organism-based; design: dose 10 mg/kg, route intravenous; conditions: in vivo, read-out: beta t1/2 (converted)
[16] = Volume of distribution at steady state in CD1 mouse at 10 mg/kg, iv administered as single dose by LC/MS/MS analysis; format: ADME, organism-based; design: dose 10 mg/kg, route intravenous; conditions: in vivo, read-out: Vdss
[17] = Oral bioavailability in CD1 mouse at 10 mg/kg administered as single dose by LC/MS/MS analysis; format: ADME, organism-based; conditions: in vivo
[18] = Cmax in CD1 mouse at 10 mg/kg, po administered as single dose by LC/MS/MS analysis; format: ADME, organism-based; design: dose 10 mg/kg, route oral; conditions: in vivo
[19] = AUC (0 to infinity) in CD1 mouse at 10 mg/kg, po administered as single dose by LC/MS/MS analysis; format: ADME, organism-based; design: time infinity, dose 10 mg/kg, route oral; conditions: plasma
[20] = AUC (0 to infinity) in CD1 mouse at 10 mg/kg, iv administered as single dose by LC/MS/MS analysis; format: ADME, organism-based; design: time infinity, dose 10 mg/kg, route intravenous; conditions: plasma

Sequence of Serine/threonine-protein kinase PLK1 (P53350 whole entry): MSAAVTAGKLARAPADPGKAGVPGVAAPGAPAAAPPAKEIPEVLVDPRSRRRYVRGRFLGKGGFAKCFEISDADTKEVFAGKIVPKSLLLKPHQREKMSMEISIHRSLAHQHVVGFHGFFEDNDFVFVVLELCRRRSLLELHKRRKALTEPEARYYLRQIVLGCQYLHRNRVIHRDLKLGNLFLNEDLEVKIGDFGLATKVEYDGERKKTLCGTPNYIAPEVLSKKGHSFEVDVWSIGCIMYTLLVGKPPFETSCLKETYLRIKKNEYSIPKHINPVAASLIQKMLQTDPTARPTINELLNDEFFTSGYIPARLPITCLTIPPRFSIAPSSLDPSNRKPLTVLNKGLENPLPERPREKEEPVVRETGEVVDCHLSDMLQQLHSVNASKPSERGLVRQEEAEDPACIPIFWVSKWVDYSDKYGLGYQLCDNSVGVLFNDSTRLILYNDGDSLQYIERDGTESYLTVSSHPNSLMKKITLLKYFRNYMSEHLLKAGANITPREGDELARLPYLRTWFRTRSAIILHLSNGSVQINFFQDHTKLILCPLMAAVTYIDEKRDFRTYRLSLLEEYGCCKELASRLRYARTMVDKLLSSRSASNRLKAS
Sequence of Serine/threonine-protein kinase PLK2 (Q9NYY3 whole entry): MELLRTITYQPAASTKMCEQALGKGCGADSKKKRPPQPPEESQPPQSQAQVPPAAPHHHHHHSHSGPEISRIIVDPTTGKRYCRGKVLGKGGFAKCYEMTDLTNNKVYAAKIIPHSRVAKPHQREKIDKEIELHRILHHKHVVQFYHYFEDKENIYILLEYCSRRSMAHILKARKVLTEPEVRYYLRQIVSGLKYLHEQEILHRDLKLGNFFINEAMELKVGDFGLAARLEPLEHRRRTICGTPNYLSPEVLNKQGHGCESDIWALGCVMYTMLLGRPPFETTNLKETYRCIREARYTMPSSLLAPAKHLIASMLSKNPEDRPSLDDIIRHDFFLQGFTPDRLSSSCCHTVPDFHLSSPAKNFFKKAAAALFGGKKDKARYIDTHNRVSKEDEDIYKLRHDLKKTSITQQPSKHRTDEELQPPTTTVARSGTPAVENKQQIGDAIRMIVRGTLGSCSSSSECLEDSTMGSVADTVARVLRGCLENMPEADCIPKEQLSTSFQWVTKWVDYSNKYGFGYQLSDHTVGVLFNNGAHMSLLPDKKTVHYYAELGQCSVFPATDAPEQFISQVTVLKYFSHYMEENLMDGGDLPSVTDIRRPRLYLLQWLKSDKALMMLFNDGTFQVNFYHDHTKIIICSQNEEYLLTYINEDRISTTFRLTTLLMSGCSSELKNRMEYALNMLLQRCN
Sequence of Serine/threonine-protein kinase PLK3 (Q9H4B4 whole entry): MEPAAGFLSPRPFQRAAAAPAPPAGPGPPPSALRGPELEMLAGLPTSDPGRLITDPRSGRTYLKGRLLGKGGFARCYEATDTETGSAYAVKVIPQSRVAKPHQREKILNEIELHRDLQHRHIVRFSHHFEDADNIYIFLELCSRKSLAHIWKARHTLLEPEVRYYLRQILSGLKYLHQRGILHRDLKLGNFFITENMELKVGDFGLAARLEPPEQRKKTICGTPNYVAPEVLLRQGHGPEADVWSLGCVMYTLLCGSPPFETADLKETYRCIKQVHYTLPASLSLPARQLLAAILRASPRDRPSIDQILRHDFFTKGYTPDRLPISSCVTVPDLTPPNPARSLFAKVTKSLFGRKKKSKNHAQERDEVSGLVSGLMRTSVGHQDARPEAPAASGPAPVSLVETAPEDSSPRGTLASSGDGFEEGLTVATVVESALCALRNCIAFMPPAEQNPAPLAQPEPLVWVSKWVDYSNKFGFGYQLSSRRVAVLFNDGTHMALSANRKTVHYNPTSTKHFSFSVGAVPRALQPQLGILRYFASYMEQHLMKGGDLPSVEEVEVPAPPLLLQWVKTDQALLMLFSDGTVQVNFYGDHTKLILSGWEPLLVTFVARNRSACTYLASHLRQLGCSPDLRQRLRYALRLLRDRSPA
Sequence of ALK tyrosine kinase receptor (Q9UM73 whole entry): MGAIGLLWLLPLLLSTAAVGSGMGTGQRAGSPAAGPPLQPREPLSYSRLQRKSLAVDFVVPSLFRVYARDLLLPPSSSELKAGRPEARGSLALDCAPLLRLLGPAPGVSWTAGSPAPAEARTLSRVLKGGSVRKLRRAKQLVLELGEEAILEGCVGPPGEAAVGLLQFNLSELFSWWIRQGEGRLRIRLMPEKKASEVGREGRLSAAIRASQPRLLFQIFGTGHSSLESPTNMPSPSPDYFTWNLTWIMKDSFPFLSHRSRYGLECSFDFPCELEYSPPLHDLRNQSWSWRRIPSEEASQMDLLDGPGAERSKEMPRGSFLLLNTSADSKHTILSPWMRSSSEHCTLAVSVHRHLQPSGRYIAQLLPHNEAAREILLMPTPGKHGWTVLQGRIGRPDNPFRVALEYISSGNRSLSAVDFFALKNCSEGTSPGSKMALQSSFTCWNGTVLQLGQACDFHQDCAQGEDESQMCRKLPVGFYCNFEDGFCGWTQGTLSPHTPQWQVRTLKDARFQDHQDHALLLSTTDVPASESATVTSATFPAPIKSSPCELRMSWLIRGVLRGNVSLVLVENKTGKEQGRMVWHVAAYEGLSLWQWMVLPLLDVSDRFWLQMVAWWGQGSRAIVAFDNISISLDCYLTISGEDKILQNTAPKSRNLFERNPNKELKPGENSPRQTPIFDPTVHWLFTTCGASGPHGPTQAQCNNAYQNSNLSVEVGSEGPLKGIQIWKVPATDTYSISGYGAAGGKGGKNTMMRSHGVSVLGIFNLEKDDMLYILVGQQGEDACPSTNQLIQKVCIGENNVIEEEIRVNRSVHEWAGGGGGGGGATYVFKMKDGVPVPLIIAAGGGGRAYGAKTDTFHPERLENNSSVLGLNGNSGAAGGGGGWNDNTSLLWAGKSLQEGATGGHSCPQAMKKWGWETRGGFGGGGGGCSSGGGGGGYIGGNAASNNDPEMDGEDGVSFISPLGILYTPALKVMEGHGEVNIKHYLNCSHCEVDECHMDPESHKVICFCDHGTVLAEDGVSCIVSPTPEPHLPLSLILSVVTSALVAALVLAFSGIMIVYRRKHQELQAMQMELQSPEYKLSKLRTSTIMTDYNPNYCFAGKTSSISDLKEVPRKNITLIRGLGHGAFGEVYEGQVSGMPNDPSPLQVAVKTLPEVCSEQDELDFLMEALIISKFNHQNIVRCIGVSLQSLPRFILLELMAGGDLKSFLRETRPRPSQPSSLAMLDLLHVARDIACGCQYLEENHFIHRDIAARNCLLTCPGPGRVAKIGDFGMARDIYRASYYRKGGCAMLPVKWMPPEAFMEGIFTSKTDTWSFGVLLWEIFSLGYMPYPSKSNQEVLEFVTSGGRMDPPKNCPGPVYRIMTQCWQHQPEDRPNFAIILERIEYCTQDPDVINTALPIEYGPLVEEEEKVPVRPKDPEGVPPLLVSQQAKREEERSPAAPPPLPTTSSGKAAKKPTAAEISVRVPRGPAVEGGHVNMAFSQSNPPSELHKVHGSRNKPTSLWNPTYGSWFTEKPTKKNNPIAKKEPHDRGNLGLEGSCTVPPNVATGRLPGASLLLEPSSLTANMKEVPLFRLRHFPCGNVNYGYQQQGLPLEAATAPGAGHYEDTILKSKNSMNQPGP
Sequence of Serine/threonine-protein kinase Nek6 (Q9HC98 whole entry): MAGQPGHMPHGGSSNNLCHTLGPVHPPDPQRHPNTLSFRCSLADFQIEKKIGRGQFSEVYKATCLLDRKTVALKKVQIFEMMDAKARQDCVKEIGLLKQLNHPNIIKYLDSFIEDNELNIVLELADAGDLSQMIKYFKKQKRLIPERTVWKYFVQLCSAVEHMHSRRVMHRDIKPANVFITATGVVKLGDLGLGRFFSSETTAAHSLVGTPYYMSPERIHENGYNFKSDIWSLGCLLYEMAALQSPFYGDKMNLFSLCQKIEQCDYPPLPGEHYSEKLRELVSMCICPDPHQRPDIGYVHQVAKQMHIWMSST

Structure (SMILES) | solubility [1] [µM] | IC50 (A2780) [nM] | IC50 [2] [nM] | IC50 [3] [nM] | IC50 [4] [nM] | IC50 [5] [nM] | other results
CN1CCC(Nc2ccc(OC(F)(F)F)c(Nc3ncc4c(n3)-c3c(c(C(N)=O)nn3C)CC4)c2)CC1 | > 225 | 1090 | 3420 | 1020 |  |  | 
Cn1nc(C(N)=O)c2c1-c1nc(Nc3cc(N)ccc3OC(F)(F)F)ncc1CC2 | 31 (≈ 13 µg/mL) | 1080 | 1280 | 1180 |  |  | 
Cn1nc(C(N)=O)c2c1-c1nc(Nc3cc(N4CCC(N5CCCC5)CC4)ccc3OC(F)(F)F)ncc1CC2 | 133 (≈ 74 µg/mL) | 583 | > 10000 | > 10000 | 33 | > 10000 | 
CN1CCCC1CCNc1ccc(OC(F)(F)F)c(Nc2ncc3c(n2)-c2c(c(C(N)=O)nn2C)CC3)c1 (configuration not stated) | 157 (≈ 83.3 µg/mL) | 2560 | 429 | 969 |  |  | 
Cn1nc(C(N)=O)c2c1-c1nc(Nc3cc(N4CCN(C(=O)N5CCNCC5)CC4)ccc3OC(F)(F)F)ncc1CC2 | 85 (≈ 51.1 µg/mL) | 538 | 190 | 622 |  |  | 
Cn1nc(C(N)=O)c2c1-c1nc(Nc3cc(N4CCN(C(=O)OC(C)(C)C)CC4)ccc3OC(F)(F)F)ncc1CC2 |  | 1290 | 768 | 1130 |  |  | 
CN1C(C)(C)CC(Nc2ccc(OC(F)(F)F)c(Nc3ncc4c(n3)-c3c(c(C(N)=O)nn3C)CC4)c2)CC1(C)C | 147 (≈ 84.2 µg/mL) | 1750 | > 10000 | 3020 | 964 | > 10000 | 
Cn1nc(C(N)=O)c2c1-c1nc(Nc3cc(NC4CCNC4)ccc3OC(F)(F)F)ncc1CC2 (configuration not stated) | 171 (≈ 83.5 µg/mL) | 2220 | 762 | 414 |  |  | 
Cn1nc(C(N)=O)c2c1-c1nc(Nc3ccccc3OC(F)(F)F)ncc1CC2 | < 1 | 6410 | 206 | 1760 | 117 | 32 | 
CN1CCCN(c2ccc(OC(F)(F)F)c(Nc3ncc4c(n3)-c3c(c(C(N)=O)nn3C)CC4)c2)CC1 | 95 (≈ 49.1 µg/mL) | 941 | > 10000 | > 10000 | 25 | > 10000 | 
Cn1nc(C(N)=O)c2c1-c1nc(Nc3cc(N4CC[N+](C)([O-])CC4)ccc3OC(F)(F)F)ncc1CC2 | > 225 | 782 | > 10000 | > 10000 |  |  | 
CN1CCN(c2ccc(OC(F)(F)F)c(Nc3ncc4c(n3)-c3c(c(C(N)=O)nn3C(c3ccccc3)(c3ccccc3)c3ccccc3)CC4)c2)CC1 | < 1 | 2100 |  | > 10000 | > 10000 |  | 
Cn1nc(C(N)=O)c2c1-c1nc(Nc3cc([N+]4([O-])CC[N+](C)([O-])CC4)ccc3OC(F)(F)F)ncc1CC2 (configuration not stated) | 48 (≈ 25.7 µg/mL) | > 10000 | > 10000 | > 10000 | 2680 | > 10000 | 

Molecules with a lower IC50 (A2780), results first:

solubility [1] [µM] | IC50 (A2780) [nM] | IC50 [2] [nM] | IC50 [3] [nM] | IC50 [4] [nM] | IC50 [5] [nM] | Structure (SMILES) | other results
33 (≈ 17 µg/mL) | 34 | 3390 | > 10000 |  |  | CCN1CCN(c2ccc(OC(F)(F)F)c(Nc3ncc4c(n3)-c3c(c(C(N)=O)nn3C)CC4)c2)CC1 | 
21 (≈ 10.8 µg/mL) | 11 | > 10000 | > 10000 | 6 | > 10000 | CCn1nc(C(N)=O)c2c1-c1nc(Nc3cc(N4CCN(C)CC4)ccc3OC(F)(F)F)ncc1CC2 | 
12 (≈ 5.86 µg/mL) | 93 | > 10000 | > 10000 | 4 | > 10000 | CN1CCN(c2ccc(OC(F)(F)F)c(Nc3ncc4c(n3)-c3[nH]nc(C(N)=O)c3CC4)c2)CC1 | 
114 (≈ 55.7 µg/mL) | 30 | > 10000 | > 10000 |  | 1430 | Cn1nc(C(N)=O)c2c1-c1nc(Nc3cc(N4CCNCC4)ccc3OC(F)(F)F)ncc1CC2 | IC50 [6]: 595 nM; IC50 [7]: 59 nM; Papp [8]: 7.22 ×10⁻⁶ cm/s; IC50 [9]: 194 nM; CLint scaled [10]: 6.9 mL/min/kg; IC50 [11]: > 10000 nM; solubility [12]: 1100 µg/mL (≈ 2.25 mM); IC50 [13]: > 10000 nM
9 (≈ 4.96 µg/mL) | 31 | > 10000 | 2010 |  | > 10000 | CN1CCN(c2ccc(OC(F)(F)F)c(Nc3ncc4c(n3)-c3c(c(C(N)=O)nn3CCCl)CC4)c2)CC1 | 
136 (≈ 74.3 µg/mL) | 75 | > 10000 | > 10000 | 15 | > 10000 | COCCn1nc(C(N)=O)c2c1-c1nc(Nc3cc(N4CCN(C)CC4)ccc3OC(F)(F)F)ncc1CC2 | 
18 (≈ 9.62 µg/mL) | 14 | > 10000 | > 10000 | 4 | > 10000 | CN1CCN(c2ccc(OC(F)(F)F)c(Nc3ncc4c(n3)-c3c(c(C(N)=O)nn3CCF)CC4)c2)CC1 | IC50 [6]: > 10000 nM; clearance [14]: 40.3 mL/min/kg; IC50 [7]: 134 nM; half-life [15]: 44.4 min; Vd [16]: 1.53 L/kg; Papp [8]: 50 ×10⁻⁶ cm/s; IC50 [9]: 216 nM; CLint scaled [10]: 56.1 mL/min/kg; IC50 [11]: > 10000 nM; bioavailability [17]: 2%; Cmax [18]: 260 nM; solubility [12]: 2100 µg/mL (≈ 3.93 mM); AUC(0-inf) [19]: 0.192 µM·h; IC50 [13]: > 10000 nM; AUC(0-inf) [20]: 10.2 µM·h
